In PubChem BioAssay AID1963421 (Molecular Pharmacology Branch, DTP, NCI, 2024):
“And” between values parts separate entries of the source, which are not always exact repeats. Identical values can stand only once.

Tested on: 519858-162-T-J1-PDC complex spheroid growth, % test/control
Assay: Anticancer human tumor 519858-162-T-J1-PDC patient-derived colon adenocarcinoma cell line growth inhibition [Asc]
Conditions: for viability, T/C: stronger effect = lower value; active = viability on the fitted dose curve at most 10% of control; inactive = the rest
Summary of the method: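 Tumor cells were grown as complex spheroids with human endothelial cells (HUVEC) and human mesenchymal stem cells as stroma. Agents were tested alone and in combination, in half-log steps down from the clinical Cmax, or from 10 microM where Cmax was unknown.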

[1] = curve of first compound, second compound 0.0316 µM
[2] = curve of first compound, second compound 0.1 µM
[3] = curve of first compound, second compound 0.316 µM
[4] = curve of first compound, second compound 1 µM
[5] = second compound 0.0316 µM, first compound 0.00316 µM
[6] = second compound 0.0316 µM, first compound 0.01 µM
[7] = second compound 0.0316 µM, first compound 0.0316 µM
[8] = second compound 0.0316 µM, first compound 0.1 µM
[9] = second compound 0.1 µM, first compound 0.00316 µM
[10] = second compound 0.1 µM, first compound 0.01 µM
[11] = second compound 0.1 µM, first compound 0.0316 µM
[12] = second compound 0.1 µM, first compound 0.1 µM
[13] = second compound 0.316 µM, first compound 0.00316 µM
[14] = second compound 0.316 µM, first compound 0.01 µM
[15] = second compound 0.316 µM, first compound 0.0316 µM
[16] = second compound 0.316 µM, first compound 0.1 µM
[17] = second compound 1 µM, first compound 0.00316 µM
[18] = second compound 1 µM, first compound 0.01 µM
[19] = second compound 1 µM, first compound 0.0316 µM
[20] = second compound 1 µM, first compound 0.1 µM
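Also: seven day drug exposure begun three days after spheroid seeding.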
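For viability, T/C in this document: 100% = DMSO vehicle wells and lower values mean less viable spheroid.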

O=C(c1cc(Cc2n[nH]c(=O)c3ccccc23)ccc1F)N1CCN(C(=O)C2CC2)CC1 + CCN1C(C(=O)NC23CCC(C(=O)O)(CC2)CC3)C(c2cccc(Cl)c2F)C2(C(=O)Nc3cc(Cl)ccc32)C12CCCCC2
inactive: viability, T/C (second compound 0.00949 µM, first compound 0.0316 µM) 106% | viability, T/C (second compound 0.00949 µM, first compound 0.1 µM) 81.9% | viability, T/C (second compound 0.00949 µM, first compound 0.316 µM) 101% | viability, T/C (second compound 0.00949 µM, first compound 1 µM) 81% | viability, T/C (second compound 0.00949 µM, first compound 3.16 µM) 90.8% | viability, T/C (second compound 0.00949 µM, first compound 10 µM) 79.4% | viability, T/C (second compound 0.03 µM, first compound 0.0316 µM) 130% | viability, T/C (second compound 0.03 µM, first compound 0.1 µM) 82.9% | viability, T/C (second compound 0.03 µM, first compound 0.316 µM) 127% | viability, T/C (second compound 0.03 µM, first compound 1 µM) 93.2% | viability, T/C (second compound 0.03 µM, first compound 3.16 µM) 75.2% | viability, T/C (second compound 0.03 µM, first compound 10 µM) 74.9% | viability, T/C (second compound 0.0949 µM, first compound 0.0316 µM) 117% | viability, T/C (second compound 0.0949 µM, first compound 0.1 µM) 103% | viability, T/C (second compound 0.0949 µM, first compound 0.316 µM) 101% | viability, T/C (second compound 0.0949 µM, first compound 1 µM) 77% | viability, T/C (second compound 0.0949 µM, first compound 3.16 µM) 92.7% | viability, T/C (second compound 0.0949 µM, first compound 10 µM) 100% | viability, T/C (second compound 0.3 µM, first compound 0.0316 µM) 163% | viability, T/C (second compound 0.3 µM, first compound 0.1 µM) 94.9% | viability, T/C (second compound 0.3 µM, first compound 0.316 µM) 99.2% | viability, T/C (second compound 0.3 µM, first compound 1 µM) 83.3% | viability, T/C (second compound 0.3 µM, first compound 3.16 µM) 85.2% | viability, T/C (second compound 0.3 µM, first compound 10 µM) 72.2% | viability, T/C (second compound 0.949 µM, first compound 0.0316 µM) 71.9% | viability, T/C (second compound 0.949 µM, first compound 0.1 µM) 70.6% | viability, T/C (second compound 0.949 µM, first compound 0.316 µM) 76.5% | viability, T/C (second compound 0.949 µM, first compound 1 µM) 86.5% | viability, T/C (second compound 0.949 µM, first compound 3.16 µM) 85.2% | viability, T/C (second compound 0.949 µM, first compound 10 µM) 94% | viability, T/C (second compound 3 µM, first compound 0.0316 µM) 63.8% | viability, T/C (second compound 3 µM, first compound 0.1 µM) 89.3% | viability, T/C (second compound 3 µM, first compound 0.316 µM) 94.7% | viability, T/C (second compound 3 µM, first compound 1 µM) 73.4% | viability, T/C (second compound 3 µM, first compound 3.16 µM) 100% | viability, T/C (second compound 3 µM, first compound 10 µM) 76%
> 10000 nM: IC50 (curve of first compound, second compound 0.00949 µM) | IC50 (curve of first compound, second compound 0.03 µM) | IC50 (curve of first compound, second compound 0.0949 µM) | IC50 (curve of first compound, second compound 0.3 µM) | IC50 (curve of first compound, second compound 0.949 µM) | IC50 (curve of first compound, second compound 3 µM)

Cn1ncnc1[C@H]1c2n[nH]c(=O)c3cc(F)cc(c23)N[C@@H]1c1ccc(F)cc1 + CNC(C)C(=O)NC1CN(S(=O)(=O)c2cccc(S(=O)(=O)N3CCC4CCC(C(=O)NC(c5ccccc5)c5ccccc5)N4C(=O)C(NC(=O)C(C)NC)C3)c2)CCC2CCC(C(=O)NC(c3ccccc3)c3ccccc3)N2C1=O
> 100 nM: IC50 (curve of first compound, second compound 0.00316 µM) | IC50 (curve of first compound, second compound 0.01 µM) | IC50 [1] | IC50 [2] | IC50 [3] | IC50 [4]
inactive: viability, T/C (second compound 0.00316 µM, first compound 0.000316 µM) 71.1% | viability, T/C (second compound 0.00316 µM, first compound 0.001 µM) 64.9% | viability, T/C (second compound 0.00316 µM, first compound 0.00316 µM) 59.8% | viability, T/C (second compound 0.00316 µM, first compound 0.01 µM) 62.1% | viability, T/C (second compound 0.00316 µM, first compound 0.0316 µM) 60.9% | viability, T/C (second compound 0.00316 µM, first compound 0.1 µM) 69.1% | viability, T/C (second compound 0.01 µM, first compound 0.000316 µM) 94.7% | viability, T/C (second compound 0.01 µM, first compound 0.001 µM) 94.5% | viability, T/C (second compound 0.01 µM, first compound 0.00316 µM) 113% | viability, T/C (second compound 0.01 µM, first compound 0.01 µM) 86.8% | viability, T/C (second compound 0.01 µM, first compound 0.0316 µM) 103% | viability, T/C (second compound 0.01 µM, first compound 0.1 µM) 78.4% | viability, T/C (second compound 0.0316 µM, first compound 0.000316 µM) 103% | viability, T/C (second compound 0.0316 µM, first compound 0.001 µM) 83% | viability, T/C [5] 90.3% | viability, T/C [6] 87.5% | viability, T/C [7] 102% | viability, T/C [8] 77.6% | viability, T/C (second compound 0.1 µM, first compound 0.000316 µM) 70.6% | viability, T/C (second compound 0.1 µM, first compound 0.001 µM) 78.3% | viability, T/C [9] 83.4% | viability, T/C [10] 107% | viability, T/C [11] 80.9% | viability, T/C [12] 97.5% | viability, T/C (second compound 0.316 µM, first compound 0.000316 µM) 83.7% | viability, T/C (second compound 0.316 µM, first compound 0.001 µM) 99.3% | viability, T/C [13] 89.4% | viability, T/C [14] 97% | viability, T/C [15] 64.3% | viability, T/C [16] 83.6% | viability, T/C (second compound 1 µM, first compound 0.000316 µM) 92.6% | viability, T/C (second compound 1 µM, first compound 0.001 µM) 76.3% | viability, T/C [17] 83.3% | viability, T/C [18] 71.3% | viability, T/C [19] 90.6% | viability, T/C [20] 78.1%

COc1c(OCCCN2CCOCC2)ccc2c3n(c(=NC(=O)c4cnc(N)nc4)nc12)CCN3 + Cc1c(S(C)(=O)=O)c(-c2cc(F)cc(N3CCN(c4ccc(NS(=O)(=O)c5ccc(NC(CCN6CCC(C(=O)OCCCP(=O)(O)O)CC6)CSc6ccccc6)c(S(=O)(=O)C(F)(F)F)c5)cc4)CC3)c2)c(-c2ccc(Cl)cc2)n1C(C)C
238 nM: IC50 [4]
inactive: viability, T/C [5] 41.6% | viability, T/C [6] 97.5% | viability, T/C [7] 74.9% | viability, T/C [8] 95.5% | viability, T/C (second compound 0.0316 µM, first compound 0.316 µM) 54.4% | viability, T/C (second compound 0.0316 µM, first compound 1 µM) 52.7% | viability, T/C [9] 68.5% | viability, T/C [10] 94.5% | viability, T/C [11] 64.7% | viability, T/C [12] 100% | viability, T/C (second compound 0.1 µM, first compound 0.316 µM) 53.2% | viability, T/C (second compound 0.1 µM, first compound 1 µM) 47.1% | viability, T/C [13] 65.2% | viability, T/C [14] 103% | viability, T/C [15] 69.4% | viability, T/C [16] 72.7% | viability, T/C (second compound 0.316 µM, first compound 0.316 µM) 52.2% | viability, T/C (second compound 0.316 µM, first compound 1 µM) 53.5% | viability, T/C [17] 108% | viability, T/C [18] 97.1% | viability, T/C [19] 74.7% | viability, T/C [20] 59.8% | viability, T/C (second compound 1 µM, first compound 0.316 µM) 46.8% | viability, T/C (second compound 1 µM, first compound 1 µM) 42.2% | viability, T/C (second compound 3.16 µM, first compound 0.00316 µM) 84.1% | viability, T/C (second compound 3.16 µM, first compound 0.01 µM) 60.8% | viability, T/C (second compound 3.16 µM, first compound 0.0316 µM) 79.2% | viability, T/C (second compound 3.16 µM, first compound 0.1 µM) 70.3% | viability, T/C (second compound 3.16 µM, first compound 0.316 µM) 53.9% | viability, T/C (second compound 3.16 µM, first compound 1 µM) 55.6% | viability, T/C (second compound 10 µM, first compound 0.00316 µM) 78.3% | viability, T/C (second compound 10 µM, first compound 0.01 µM) 72.1% | viability, T/C (second compound 10 µM, first compound 0.0316 µM) 71.1% | viability, T/C (second compound 10 µM, first compound 0.1 µM) 45.6% | viability, T/C (second compound 10 µM, first compound 0.316 µM) 58.2% | viability, T/C (second compound 10 µM, first compound 1 µM) 46.2%
578 nM: IC50 [2]
> 1000 nM: IC50 [1] | IC50 [3] | IC50 (curve of first compound, second compound 3.16 µM) | IC50 (curve of first compound, second compound 10 µM)

O=C(c1ccc(F)c(F)c1Nc1ccc(I)cc1F)N1CC(O)([C@@H]2CCCCN2)C1
inactive: viability, T/C (compound 0.00316 µM) 85.1% and 106% and 91% | viability, T/C (compound 0.01 µM) 92.7% and 96% and 89.8% | viability, T/C (compound 0.0316 µM) 61.4% and 68.8% and 91.4% | viability, T/C (compound 0.1 µM) 71.8% and 85.1% and 80.8% | viability, T/C (compound 0.316 µM) 38.6% and 49.1% and 46.9% | viability, T/C (compound 1 µM) 18.4% and 19.7% and 19.3%
202 nM and 325 nM and 284 nM: IC50 (curve of compound)
